According to patent publication US11027022B2, “Conjugates and conjugating reagents” (priority 2016, dated 2021):

Tested on: Karpas-299 cells (T-anaplastic large cell lymphoma, ALCL)
Test: Karpas-299 mouse xenograft study
Type: in vivo, CB17-SCID mice
Conditions: single i.v. injection, 1 mg/kg, groups of eight mice
Description: Healthy female CB17-SCID mice (CBySmn.CB17-Prkdcscida, Charles River Laboratories) with an average body weight of 17.5 g were used for cell inoculation (Day 0). 24 to 72 h prior to tumour cell injection, the mice were […] (1.44 Gy, ^60Co). The animals were maintained in SPF health status according to the FELASA guidelines in housing rooms under controlled environmental conditions.
Tumours were induced by subcutaneous injection of 10^7 Karpas-299 cells (T-anaplastic large cell lymphoma, ALCL) in 200 μL of RPMI 1640 into the right flank. Tumours were measured twice a week with callipers, and the volume was estimated using the formula: […]
Fourteen days after tumour implantation (Day 14), the animals were randomised into groups of eight mice using Vivo Manager® software (233 mm^3 mean tumour volume) and treatment was initiated. The animals from the vehicle group received a single intravenous (i.v.) injection of PBS. The treated groups were dosed with a single i.v. injection of ADC at either 0.5 mg/kg or 1 mg/kg.
Treatment tolerability was assessed by bi-weekly body weight measurement and daily observation for clinical signs of treatment-related side effects. Mice were euthanized when a humane endpoint was reached (e.g. 1,600 mm^3 tumour volume) or after a maximum of 6 weeks post-dosing.

Substance: Adcetris®: commercially-available Adcetris® conjugate, comparative to the brentuximab-drug conjugates [reference compound]
- complete responses (total reduction of tumour volume to zero): 2 animals
- mean tumour volume (result in words): increase in mean tumour volume
